{"source": "patent US11617754B2", "about": "“Methods of treating heart failure with preserved ejection fraction” (Poxel SA, priority 2017, dated 2023)", "assay_type_in_all_cases": "in vivo, rat", "key": {"[1]": {"system": "septal coronary artery of Zucker fa/fa rats", "assay": "Coronary endothelial function: acetylcholine-induced relaxation of septal coronary artery from treated Zucker fa/fa rats", "settings": "150 mg/kg bid, administration for 9 and 90 days, serotonin-precontracted segments", "method": "(§1) Experiments were performed on 12-week-old Male Zucker fa/fa rats or lean control rats purchased from Ch. River (US).\n(§2) Animals were kept 2 per cage in standard laboratory conditions, and drugs were administered by gavage (at 9 am and at 6 pm) at the dose of 150 mg/kg bid and administered for 9 or 90 days. Imeglimin's effects on cardiac dysfunction were assessed. • First experiment protocol:\nCoronary endothelial function was assessed after 9 or 90 days of treatment, as described previously (Fang Y H et al, Journal of Cardiovascular Pharmacology, 2012, 59: 260-267; Mulder et al., Eur Heart J., 2008, 29:2171-2179). In brief, at the end of the left ventricular function assessment, the heart was removed and immediately placed in cold oxygenated Krebs buffer. A 1.5- to 2-mm-long segment of arteries were carefully dissected and mounted in a small vessel myograph. Normalization procedure was performed after an equilibration period. Segments with an internal diameter<170 μm was excluded to avoid mechanical endothelial injury and unspecific dysfunction. Concentration-response curves to acetylcholine (10^−8 to 3×10^−5 mol/L) were performed in serotonin-precontracted segments (10^−5 mol/L)."}, "Zucker fa/fa rats [2]": {"system": "Zucker fa/fa rats", "assay": "Cardiac hemodynamics (left ventricular pressure-volume curves) in Zucker fa/fa rats", "method": "as §1, §2\n(§3) The Zucker fa/fa animals were randomized on their body weight in two groups and three groups were then constituted: • Lean rats (Treated with vehicle n=12) • Control Zucker fa/fa rats (Treated with vehicle n=18) • Imeglimin treated Zucker fa/fa rats at the dose of 150 mg/kg bid (n=18)\nAfter a short-term treatment (9 days), cardiac function (echocardiography and MRI) and cardiac hemodynamics were assessed (1 h after the last treatment) on all rats. • Second experiment protocol:\n(§4) The Zucker fa/fa animals were randomized on their body weight in two groups and three groups were then constituted: • Lean rats (Treated with vehicle n=18) • Control Zucker fa/fa rats (Treated with vehicle n=24) • Imeglimin treated Zucker fa/fa rats at the dose of 150 mg/kg bid (n=24)\n(§5) After a long-term treatment (90 days), cardiac function (echocardiography and MRI) and cardiac hemodynamics were assessed (1 h after the last treatment) on all rats.\nThe imeglimin suspension was prepared at the concentrations used in the study (150 mg/kg) and homogenized in 10 mL of the Methylcellulose solution. The drug suspension was prepared on the day of administration.\nLeft ventricle function was assessed using left pressure volume curves after 9 or 90 days of treatment, as previously described (Fang Y et al, J Mol Cell Cardiol., 2011, 51:168-176; Fang Y H et al, Journal of Cardiovascular Pharmacology, 2012, 59: 260-267). In brief, a 2F miniaturized combined conductance catheter-micromanometer (model SPR-819, Millar Instruments) connected to a pressure-conductance unit (MPCU-200, Millar) was advanced retrograde via the carotid artery into the left ventricle. This catheter has a micro-manometer surrounded by 4 platinum electrodes; the two outermost electrodes generate a current of 0.1 mA at a frequency of 20 kHz, which is sensed by the two innermost electrodes. Pressure-Volume (PV) loops were recorded at baseline and during loading by gently occluding the abdominal aorta with a cotton swab. Data were stored and analysed by using Millar conductance data acquisition and analysis software. Finally, the following parameters were measured/calculated from the pressure-volume curves: • Left ventricular end-diastolic pressure; • Left ventricular end-systolic pressure; • Left ventricular relaxation constant Tau; • Left ventricular end-diastolic pressure-volume relation; and • Left ventricular end-systolic pressure-volume relation. Coronary Endothelial Function"}, "Zucker fa/fa rats [3]": {"system": "Zucker fa/fa rats", "assay": "Echocardiography, cardiac output in Zucker fa/fa rats", "settings": "150 mg/kg bid, 90 days, vs untreated Zucker fa/fa", "method": "as §1, §2, §3\n(§6) After a short-term treatment (9 days), cardiac function (echocardiography and MRI) and cardiac hemodynamics were assessed (1 h after the last treatment) on all rats. • Second experiment protocol: […]\nas §5\nStudies were performed on rats after 9 and 90 days of treatment. […] LV diameters were measured by the American Society of Echocardiography leading-edge method from at least 3 consecutive cardiac cycles. […]"}, "Zucker fa/fa rats [4]": {"system": "Zucker fa/fa rats", "assay": "Left ventricular oxidative stress: ROS production in LV homogenates by EPR, Zucker fa/fa rats", "settings": "150 mg/kg bid", "method": "as §1, §2\nLeft ventricular reactive oxygen species production level were evaluated in left ventricular homogenates (obtained after 9 or 90 days of treatment) by electron paramagnetic resonance spectroscopy (EPR) using the spin probe 1-hydroxy-3-methoxycarbonyl-2,2,5,5-tetramethylpyrrolidine (CMH, Noxygen, Germany), as previously described (Mulder P, Eur Heart J. 2008; 29:2171-2179). Stock solution of CMH (50 mM) were prepared in Krebs-HEPES buffer (0.1 M NaCl, 5 mM KCl, 2.5 mM CaCl2, 1.2 mM MgSO4, 25 mM NaHCO3, 1 mM KH2PO4, 5.6 mM D(+)-Glucose, 20 mM Na-HEPES, pH 7.4) containing 25 μM deferoxamine and 5 μM diethyldithiocarbamate. […] The oxidation of CMH into the stable 3-methoxycarbonyl-proxyl (CM•), driven mainly by superoxide and peroxynitrite reactions, was recorded using a MiniScope MS-200 X-band spectrometer (Magnettech, Germany). […] Intensity of the spectra was measured from the height of the central line. CM• production was quantified using CP° standard and expressed in μmol of CM• per mg of total proteins."}, "Zucker fa/fa rats [5]": {"system": "Zucker fa/fa rats", "assay": "Cardiac histology: LV collagen density (Sirius red) in Zucker fa/fa rats", "settings": "150 mg/kg bid, D90, mean ± SEM", "method": "as §1, §2, §4\nAt the end of the treatment period, the heart was taken out. After fixation, the left ventricle was cut in 3 sections of identical thickness. The sections of the heart were dehydrated and embedded in paraffin. 3 μm-thick sections were cut from each block and mounted on glass slides. Sections were stained with Sirius red for the determination of collagen. Slides were enlarged 500 times using a microscope connected to an image analysis system, as previously described (Mulder et al., J. Am. Coll. Cardiol., 1997). Collagen density was calculated in the left ventricle as the surface occupied by collagen divided by the surface of the image."}, "Zucker fa/fa rats [6]": {"system": "Zucker fa/fa rats", "assay": "Myocardial perfusion by MRI (arterial spin labeling) in Zucker fa/fa rats", "settings": "150 mg/kg bid, vs untreated Zucker fa/fa", "method": "as §1, §2, §3, §6, §5\nThe ECG signal was monitored by placing two subcutaneous electrodes on each side of the rat at chest level. […] Upon subtraction of an image acquired without spin labelling, the background signal from static spins is removed and the difference image can be used to quantify perfusion. […]"}, "[7]": {"settings": "150 mg/kg bid, 90 days, vs untreated Zucker fa/fa"}}}
{"compound": "CC1N=C(N)NC(N(C)C)=N1", "note": "(single isomer, unassigned; (+)) [Imeglimin, (+)-2-amino-3,6-dihydro-4-dimethylamino-6-methyl-1,3,5-triazine]", "values": [{"measurement": "acetylcholine-induced relaxation of septal coronary artery (FIG. 3)", "setting": "[1]", "value": "prevented the impairment"}, {"measurement": "reduction of the left ventricular end-diastolic pressure-volume relation", "setting": "Zucker fa/fa rats [2]; 150 mg/kg bid by gavage, 9 days of treatment", "value": "about 26%"}, {"measurement": "reduction of the left ventricular end-diastolic pressure-volume relation", "setting": "Zucker fa/fa rats [2]; 150 mg/kg bid by gavage, 90 days of treatment", "value": "~58", "unit": "%"}, {"measurement": "reduction of the left ventricular end-diastolic pressure-volume relation", "setting": "Zucker fa/fa rats [2]; 150 mg/kg bid, 9 days, vs untreated Zucker fa/fa", "value": "already significant"}, {"measurement": "LV compliance increase", "setting": "Zucker fa/fa rats [2]; 150 mg/kg bid, 90 days of treatment", "value": "about 50%"}, {"measurement": "LV end-diastolic pressure (FIG. 1A)", "setting": "Zucker fa/fa rats [2]; [7]", "value": "significant reduction"}, {"measurement": "LV end-diastolic pressure volume relation (FIG. 1C)", "setting": "Zucker fa/fa rats [2]; [7]", "value": "significant reduction"}, {"measurement": "LV relaxation constant Tau (FIG. 1B)", "setting": "Zucker fa/fa rats [2]; [7]", "value": "significant reduction"}, {"measurement": "cardiac output (FIG. 2A)", "setting": "Zucker fa/fa rats [3]", "value": "increased"}, {"measurement": "LV ROS production", "setting": "Zucker fa/fa rats [4]; D9, mean ± SEM", "value": "27.61 ± 1.29", "unit": "AU · μg^−1 · h^−1"}, {"measurement": "LV ROS production", "setting": "Zucker fa/fa rats [4]; D90, mean ± SEM", "value": "34.02 ± 1.49", "unit": "AU · μg^−1 · h^−1"}, {"measurement": "LV collagen density", "setting": "Zucker fa/fa rats [5]", "value": "2.52 ± 0.20", "unit": "%"}, {"measurement": "increase in the myocardial perfusion", "setting": "Zucker fa/fa rats [6]; 9 days", "value": "already significant"}, {"measurement": "myocardial perfusion (FIG. 2B)", "setting": "Zucker fa/fa rats [6]; 90 days", "value": "increased"}]}
